# Assays:
# Human Factor XIIa = biological target: T1, Human Factor XIIa (Homo sapiens, UniProt P00748); assay: Determination of Factor XIIa inhibitory activity in vitro (fluorogenic substrate H-DPro-Phe-Arg-AFC); type: biochemical; details: Human Factor XIIa (Enzyme Research Laboratories), 25° C., read-out: Human FXIIa IC50
# T1 construct: purchased Enzyme Research Laboratories
# T1 sequence (P00748 373-615 limits assumed): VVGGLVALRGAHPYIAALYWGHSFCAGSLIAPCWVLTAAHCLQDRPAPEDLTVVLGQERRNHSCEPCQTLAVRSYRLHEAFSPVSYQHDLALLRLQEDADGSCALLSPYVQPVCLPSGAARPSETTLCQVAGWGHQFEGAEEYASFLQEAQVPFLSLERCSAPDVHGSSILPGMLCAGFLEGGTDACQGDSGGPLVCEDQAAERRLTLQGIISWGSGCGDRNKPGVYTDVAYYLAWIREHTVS
# T1 sequence (P00748 20-372 partner limits assumed): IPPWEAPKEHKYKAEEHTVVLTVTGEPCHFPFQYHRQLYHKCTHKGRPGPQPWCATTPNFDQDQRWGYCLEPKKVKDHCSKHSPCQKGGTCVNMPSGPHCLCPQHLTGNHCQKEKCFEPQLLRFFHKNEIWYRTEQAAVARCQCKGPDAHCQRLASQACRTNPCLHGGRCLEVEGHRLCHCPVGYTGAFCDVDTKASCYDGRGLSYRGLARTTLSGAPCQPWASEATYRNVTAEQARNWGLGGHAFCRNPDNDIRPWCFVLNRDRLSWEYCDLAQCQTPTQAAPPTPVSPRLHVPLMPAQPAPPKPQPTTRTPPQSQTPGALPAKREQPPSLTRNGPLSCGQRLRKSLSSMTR
# In short: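 In vitro inhibition of human Factor XIIa (sourced from Enzyme Research Laboratories) was measured by incubating the enzyme at 25° C. with the fluorogenic substrate H-DPro-Phe-Arg-AFC across a range of test compound concentrations. The initial reaction rate, taken as residual enzyme activity, was followed by the […], and IC50 values were calculated.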
# Human FXIa = biological target: T2, Human FXIa (Homo sapiens, UniProt P03951); assay: Determination of FXIa inhibitory activity in vitro (fluorogenic substrate Z-Gly-Pro-Arg-AFC); type: biochemical; details: Selectivity, Human FXIa (Enzyme Research Laboratories), 25° C.
# T2 construct: purchased Enzyme Research Laboratories
# T2 sequence (P03951 388-625 limits assumed): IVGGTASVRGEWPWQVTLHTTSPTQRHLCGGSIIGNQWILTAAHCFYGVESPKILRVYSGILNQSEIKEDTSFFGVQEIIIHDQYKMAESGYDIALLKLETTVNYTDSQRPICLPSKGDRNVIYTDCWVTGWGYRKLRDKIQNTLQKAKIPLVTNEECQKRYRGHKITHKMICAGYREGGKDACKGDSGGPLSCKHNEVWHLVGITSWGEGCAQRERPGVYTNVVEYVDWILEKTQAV
# T2 sequence (P03951 19-387 partner limits assumed): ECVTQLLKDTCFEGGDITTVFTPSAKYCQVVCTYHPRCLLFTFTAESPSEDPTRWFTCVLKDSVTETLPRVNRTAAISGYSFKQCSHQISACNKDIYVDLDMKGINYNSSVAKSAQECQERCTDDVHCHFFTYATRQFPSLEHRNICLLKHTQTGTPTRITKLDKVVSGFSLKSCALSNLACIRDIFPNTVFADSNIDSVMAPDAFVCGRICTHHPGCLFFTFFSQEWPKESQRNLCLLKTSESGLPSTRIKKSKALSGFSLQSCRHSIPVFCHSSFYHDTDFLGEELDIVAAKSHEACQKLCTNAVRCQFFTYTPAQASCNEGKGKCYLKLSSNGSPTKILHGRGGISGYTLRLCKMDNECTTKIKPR
Compound,IC50 (Human Factor XIIa),IC50 (Human FXIa)
"Nc1nccc2cc(CNC(=O)c3cnc(CN4CCN(c5ccncc5)CC4)c(Cl)c3)ccc12 [Example 29.08, N-[(1-amino-6-isoquinolyl)methyl]-5-chloro-6-[[4-(4-pyridyl)piperazin-1-yl]methyl]pyridine-3-carboxamide]",10 to 40 µM,> 40 µM
"CN1CCC(CNc2ncc(Cl)cc2C(=O)NCc2c(Cl)cccc2-n2cnnn2)CC1 [Example 33.01, 5-Chloro-N-{[2-chloro-6-(1,2,3,4-tetrazol-1-yl)phenyl]methyl}-2-{[(1-methylpiperidin-4-yl)methyl]amino}pyridine-3-carboxamide]",3 to 10 µM,> 40 µM
CN1CCC(CNc2nccnc2C(=O)Nc2ccc3c(c2)C(=O)NC3)CC1 [Example 33.02],10 to 40 µM,20 µM
CN1CCC(CNc2nccnc2C(=O)Nc2ccc3nc[nH]c(=O)c3c2)CC1 [Example 33.03],10 to 40 µM,20 µM
CN1CCC(CNc2nccnc2C(=O)Nc2ccc3ccnc(N)c3c2)CC1 [Example 33.04],10 to 40 µM,> 40 µM
CCOC(=O)c1cn(-c2ccc(OC)c(F)c2CNC(=O)c2nccnc2NCC2CCN(C)CC2)nn1 [Example 33.05],3 to 10 µM,33.5 µM
CN1CCC(CNc2nccnc2C(=O)NCCc2cnc[nH]2)CC1 [Example 33.06],10 to 40 µM,20 µM
CN1CCC(CNc2nccnc2C(=O)Nc2ccc3c(N)nccc3c2)CC1 [Example 33.07],10 to 40 µM,> 40 µM
CN1CCC(CNc2nccnc2C(=O)Nc2ccc3nccnc3c2)CC1 [Example 33.08],10 to 40 µM,> 40 µM
"COc1ccc(-n2cc(C(=O)O)nn2)c(CNC(=O)c2nccnc2NCC2CCN(C)CC2)c1F [Example 33.09, 1-(3-Fluoro-4-methoxy-2-{[(3-{[(1-methylpiperidin-4-yl)methyl]amino}pyrazin-2-yl)formamido]methyl}phenyl)-1,2,3-triazole-4-carboxylic acid]",10 to 40 µM,33.5 µM
Cc1nc2ccc(NC(=O)c3nccnc3NCC3CCN(C)CC3)cc2o1 [Example 33.10],10 to 40 µM,20 µM
CN1CCC(CNc2nccnc2C(=O)Nc2ccc(-c3n[nH]c(=O)[nH]3)cc2)CC1 [Example 33.11],10 to 40 µM,> 40 µM
"CN1CCC(CNc2nccnc2C(=O)Nc2cccc3c(N)nccc23)CC1 [Example 33.12, N-(1-aminoisoquinolin-5-yl)-3-(((1-methylpiperidin-4-yl)methyl)amino)pyrazine-2-carboxamide]",1 to 3 µM,> 40 µM
CN1CCC(CNc2nccnc2C(=O)N[C@@H]2CCc3c2ccnc3N)CC1 [Example 33.13],3 to 10 µM,39.8 µM
CN1CCC(CNc2nccnc2C(=O)Nc2cnc3[nH]cc(Cl)c3c2)CC1 [Example 33.14],10 to 40 µM,> 40 µM
CN1CCC(CNc2nccnc2C(=O)Nc2cccc3[nH]cc(Cl)c23)CC1 [Example 33.15],10 to 40 µM,> 40 µM
CN1CCC(CNc2nccnc2C(=O)NCc2ccc3ccnc(N)c3c2)CC1 [Example 33.16],3 to 10 µM,> 40 µM
COc1ccc(-n2cncn2)c(CNC(=O)c2nccnc2NCC2CCN(C)CC2)c1F [Example 33.17],10 to 40 µM,> 40 µM
"Cc1c(CNC(=O)c2nccnc2NCC2CCN(C)CC2)ccc2c(N)nccc12 [Example 33.18, N-((1-amino-5-methylisoquinolin-6-yl)methyl)-3-(((1-methylpiperidin-4-yl)methyl)amino)pyrazine-2-carboxamide]",0.3 to 1 µM,> 40 µM
CN1CCC(CNc2nccnc2C(=O)NCc2cc(F)c3c(N)nccc3c2)CC1 [Example 33.19],10 to 40 µM,> 40 µM
COc1cc2c(N)nccc2cc1CNC(=O)c1nccnc1NCC1CCN(C)CC1 [Example 33.20],1 to 3 µM,13.5 µM
CN1CCC(CNc2nccnc2C(=O)NCc2cc3c(N)nccc3s2)CC1 [Example 33.21],3 to 10 µM,> 40 µM

# — US20220298141A1, “ENZYME INHIBITORS” (KALVISTA PHARMACEUTICALS LIMITED, priority 2019, published 2022)
